Results from PubChem BioAssay AID720588 (Broad Institute, 2013).
Values joined by “and” are separate entries in the source; they are usually repeats but may differ in a detail not shown here. Equal entries are not always repeated.

Tested on: HEK293T viability, CellTiter-Glo ATP luminescence, 72 h
Assay: ATP-based viability loss in HEK293T cells – cell-based, CellTiter-Glo luminescence, cherry-pick, set 3, cytotoxicity control, dose response (AID 720588);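 further: potency for luminescence loss meaning cytotoxic compounds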

| Compound | AC35 |
| --- | --- |
| C[C@H](O)C#Cc1ccc2c(c1)O[C@@H](CN(C)Cc1ccc(-c3ccccc3)cc1)[C@H](C)CN([C@@H](C)CO)S2(=O)=O | 14.7 µM and 11.2 µM |
| COc1ccc(-c2cc(CNc3nc(NC(C)C)nc4cc(-c5ccccc5)sc34)on2)cc1 | 12.5 µM |
| C[C@@H]1CN([C@@H](C)CO)C(=O)c2cc(N(C)C)ccc2O[C@H]1CN(C)Cc1ccc(C(=O)Nc2ccccc2N)cc1 | 24.6 µM |
| COc1cccc(-c2cccc(-c3nc(C(=O)NCC(F)(F)F)cc4c3[C@H](CCO)N([S@@](=O)C(C)(C)C)C4)c2)c1 | 23.5 µM |
| C(=Cc1cnc2ccccc2n1)c1ccc2c(c1)OCO2 | 5.29 µM |
| Oc1[nH]c2ccc(Br)cc2c1N=NC(=S)N1CCOCC1 | 4.31 µM |
| N/C(=C\C(=O)c1cc(Cl)ccc1O)C(Cl)(Cl)Cl | 14.7 µM |
| C(=NNc1ccc2ccccc2n1)c1ccccn1 | 1.62 µM |
| C[C@@H]1CN([C@@H](C)CO)C(=O)c2cccc(N(C)C)c2O[C@@H]1CN(C)Cc1ccc(C(=O)Nc2ccccc2N)cc1 | 8.32 µM |
| COc1ccccc1NC(=O)N1CCCCN2[C@H](CO)[C@H](c3ccc(-c4cccc(C)c4)cc3)[C@H]2C1 | 10.4 µM |
| CC1(C)N=C(N)N=C(N)N1c1ccc(OCCCOc2ccccc2)c(Cl)c1 | 11.1 µM |
| O=c1cc(-c2ccccc2)oc2ccc3ccccc3c12 | 1.57 µM |
| CCN1/C(=C/C=C/c2oc3ccc(-c4ccccc4)cc3[n+]2CC)Oc2ccc(-c3ccccc3)cc21 | 4.89 µM |
| C(=N\Nc1nc2ccccc2[nH]1)/c1ccccn1 | 6.22 µM |
| COc1ccc(-c2cnc3c(NC=O)cc(-c4ccccc4OC)cn23)cc1OC | 9.05 µM |
| C[C@@H]1CN([C@@H](C)CO)C(=O)c2cccc(NS(=O)(=O)c3ccc(Cl)cc3)c2O[C@@H]1CN(C)Cc1ccc(C(=O)Nc2ccccc2N)cc1 | 6.6 µM |
| CC(=NNc1ccc2ccccc2n1)c1ccccn1 | 1.12 µM |
| C=C1C(=O)O[C@@H]2[C@H]1[C@@H](OC(=O)/C(C)=C/C)C/C(C)=C\C(=O)/C=C(\C)[C@@H]2O | 7.47 µM |
| C=C(C(=O)c1ccccc1)C(C)C(=C)C(=O)c1ccccc1 | 5.24 µM |
| Nc1nc(N)c2cc(Sc3ccc4ccccc4c3)ccc2n1 | 4.44 µM |
| O=C(C[C@H]1C[C@H]2c3cc(NS(=O)(=O)c4ccc(F)cc4)ccc3O[C@H]2[C@H](CO)O1)NCc1ccc(Oc2ccccc2)cc1 | 16 µM |
| CCCN1C/C(=C/c2ccc3c(c2)OCO3)C(=O)/C(=C/c2ccc3c(c2)OCO3)C1 | 21.2 µM |

| Compound | AC35 |
| --- | --- |
| C/C(=C\c1ccccc1)C(=O)N1CCC=CC1=O | 22.3 µM |
| O=c1c2ccccc2nc(/C=C/c2cc(Br)ccc2O)n1CCCO | 14.4 µM |
| C[C@@H]1O[C@@H](O[C@H]2C[C@@H](O)[C@]3(CO)[C@@H]4C(CC[C@]3(O)C2)[C@@]2(O)CC[C@H](C3COC(=O)C3)[C@@]2(C)C[C@H]4O)[C@H](O)[C@H](O)[C@H]1O (stereo partly specified) | 2.43 µM |
| Cc1ccc(S(=O)(=O)Nc2ccc3c(c2)C(=O)N([C@@H](C)CO)C[C@@H](C)[C@@H](CN(C)Cc2ccc(C(=O)Nc4ccccc4N)cc2)O3)cc1 | 7.11 µM |
| COc1cc2c(OC(C)=O)c3c(c(-c4ccc5c(c4)OCO5)c2cc1OC)C(=O)OC3 | 0.964 µM |
| COc1ccc(/C=C(/C(=O)c2cccs2)N2C=CC=CC2=C(C#N)C#N)cc1 | 6.97 µM |
| Cc1ccc(S(=O)(=O)Nc2ccc3c(c2)C(=O)N([C@H](C)CO)C[C@H](C)[C@@H](CN(C)Cc2ccc(C(F)(F)F)cc2)OCCCC[C@H](C)O3)cc1 | 8.51 µM |
| COc1ccccc1C(CCNCc1ccc(N(C)C)cc1)c1ccc(OC(C)C)cc1 (stereo unspecified) | 10.7 µM |
| C[C@@H]1CN([C@@H](C)CO)C(=O)c2cc(NS(=O)(=O)c3ccc(F)cc3)ccc2O[C@@H]1CN(C)Cc1ccc(C(=O)Nc2ccccc2N)cc1 | 7.54 µM |
| Cc1nn(Cc2ccccc2Cl)c2sc(C(=O)Nc3ccccc3N3CCOCC3)cc12 | 15.9 µM |
| CCOC(=O)[C@]12Cc3ccc(C)cc3[C@H]1N(C1CCCCC1)C(=O)c1ccccc12 | 9.24 µM |
| C[C@@H]1CN([C@@H](C)CO)S(=O)(=O)c2ccc(C#CC(C)(C)O)cc2O[C@H]1CN(C)Cc1ccc(-c2ccccc2)cc1 | 6.7 µM |
| CCc1nc(N)nc(N)c1-c1ccc(Cl)c(N=[N+]=[N-])c1 | 8.98 µM |
| Cc1cc(C)cc(N2C(=O)NC(=O)/C(=C\C=C\c3ccco3)C2=O)c1 | 10.6 µM |
| C=CC[n+]1c(-c2ccc(C)cc2)csc1Nc1ccc(NC(C)=O)cc1 | 12.5 µM |
| O=C1/C(=C\c2ccccc2)CN(C(=O)CCN2CCCCC2)C/C1=C/c1ccccc1 | 5.13 µM |
| CNC[C@H](CC1CCCCC1)NC[C@H](CO)NCCc1cccc(C(F)(F)F)c1 | 10.8 µM |
| O=c1ccc2[n+]([O-])c3ccc(O)cc3oc-2c1 | 4.57 µM |
| CCCCc1c(Cc2ccccc2)ncn1CCc1ccccc1OC | 20.7 µM |
| CCCCCCCCCCCCCCCCCCNc1ccn(C2OC(COP(=O)(O)OCC3OC(n4cc(F)c(=O)[nH]c4=O)CC3O)C(O)C2O)c(=O)n1 (stereo unspecified) | 6.6 µM |
| CC(=O)Nc1ccc(S(=O)(=O)Nc2ccc(N3CCCCC3)cc2)cc1 | 22.1 µM |
| COc1ccccc1-c1ccc(OCCCN2CCC(C(O)(c3ccccc3)c3ccccc3)CC2)cc1 | 10.3 µM |

| Compound | AC35 |
| --- | --- |
| CC(=O)OC1CC(OC2C(O)CC(OC3C(O)CC(OC4CCC5(C)C(CCC6C5CCC5(C)C(C7=CC(=O)OC7)C(O)CC65O)C4)OC3C)OC2C)OC(C)C1OC1OC(CO)C(O)C(O)C1O (stereo unspecified) | 0.58 µM |
| COC(=O)CC1(C(=O)OC)Oc2ccc(Br)cc2C(=O)N1c1cccc(Cl)c1Cl (stereo unspecified) | 13.1 µM |
| CC(C)N1C/C(=C/c2ccsc2)C(=O)/C(=C/c2ccsc2)C1 | 7.95 µM |
| O=C1c2ccccc2C(=O)c2cc(N3CCCCC3)ccc21 | 6.31 µM |
| N#C[C@@H]1[C@H](c2ccc(C#Cc3ccccc3F)cc2)[C@@H](CO)N1C(=O)c1cccnc1 | 25.4 µM |
| CN=c1scc(-c2cccs2)n1/N=C/c1ccccc1O | 10.5 µM |
| C=C1C(=O)[C@@]23[C@H](O)C[C@@H]4C(C)(C)CC[C@H](O)[C@@]4(C)[C@@H]2CC[C@@H]1[C@H]3O | 6.9 µM |
| COc1ccc(Cn2cc3c(-c4ccc(F)cc4)nnc-3c3cc(OC)c(OC)cc32)cc1 | 10.2 µM |
| Cc1ccc(/C=N/Nc2ccc3ccccc3n2)o1 | 15.5 µM |
| NC(Cc1ccc(C(F)(F)F)cc1)c1csc(NC(=O)Nc2ccccc2Cc2ccccc2)n1 (stereo unspecified) | 12.4 µM |
| CCCCC[C@H](C)N1C[C@H](COCc2ccccc2)Oc2cc(N3CC[C@@H](N(C)C)C3)ccc2S1(=O)=O | 14.8 µM |
| C=C1C(=O)OC2C1CCC(C)C1C=CC(=O)C12C (stereo unspecified) | 8.71 µM |
| O=C(Nc1ccc2c(c1)OCO2)N1C[C@@H]2N[C@H](C1)C2c1ccc(C=Cc2ccccc2)cc1 (stereo partly specified) | 9.59 µM |
| O=C1NC(=S)NC(=O)C1=Cc1cccn1-c1ccc(O)cc1 | 19.5 µM |
| NC1=CC(=O)C(=O)c2cccnc21 | 20.7 µM |
| COc1ccc(NC(=S)N=Nc2c(O)[nH]c3ccccc23)cc1 | 7.54 µM |
| COc1ccc(NC(=O)N2CCCCN3[C@@H](CO)[C@H](c4ccc(C5=CCCCC5)cc4)[C@@H]3C2)cc1 | 10 µM |
| C(=Cc1nc2ccccc2o1)c1ccc2c(c1)OCO2 | 2.47 µM |
| N#CC(C#N)=C1C=CC=CN1/C(=C\c1ccco1)C(=O)c1ccc(Cl)cc1 | 3.47 µM |
| C[C@@H]1CN([C@@H](C)CO)S(=O)(=O)c2ccc(C#Cc3ccncc3)cc2O[C@H]1CN(C)S(=O)(=O)c1ccccc1 | 24.5 µM |
| COc1ccccc1CNC(=O)C[C@@H]1CC[C@H]2[C@@H](COC[C@H](O)CN2C(=O)Nc2ccc(C(F)(F)F)cc2)O1 | 13.5 µM |
| C=C1C(=O)OC2C1CCC(C)C1(O)C=CC(=O)C21C (stereo unspecified) | 9.94 µM |
